Experimental data: US20260151620A1, “IMPLANT MEDICAL DEVICES” (Case Western Reserve University, priority 2021, published 2026)

Experiment: In vitro drug release from drug-loaded titania nanotube arrays (TNAs) in PBS at 37° C.
Format: physicochemical
Experimental: A total of 500 μL of DEX solution was pipetted onto the nanotube surface (pipetting 100 μL for 5 times) and allowed to dry in fume hood for an hour, ensuring that the nanotube array surface was completely dry prior to each pipetting and the release studies. Then, DEX-loaded TNA samples were immersed in Eppendorf tubes containing 100 μL of PBS (1× phosphate buffered saline) and were placed in a water bath kept at 37° C. For release measurements, all 100 μL from each releasing sample tube was transferred to a 96-well plate and measured using a SpectraMax M 2 Microplate Reader. The absorption of DEX was measured at 244 nm. After each measurement, the releasing medium was fully replaced with […] of fresh PBS.

[1] = 37° C., TNAs on polyimide and foil substrates
[2] = 37° C., TNAs on polyimide and foil substrates, PBS

| Compound | burst after contacting the PBS [1] | release profile [2] | release profile (37° C., ~0.5 μm-deep, 100 nm-diameter TNAs on polyimide) | relationship between nanotube diameter and release rate (nanotube diameters within the 30 nm-100 nm range) | difference in release data between the two drug loading methods (normal pipetting vs soaking) | duration of linear release [2] | duration of sustained release (TNA 2 micron long, 30 nm pore size, 37° C. (FIG. 6B)) |
| --- | --- | --- | --- | --- | --- | --- | --- |
| C[C@@H]1C[C@H]2[C@@H]3CCC4=CC(=O)C=C[C@]4(C)[C@@]3(F)[C@@H](O)C[C@]2(C)[C@@]1(O)C(=O)COP(=O)(O)O [Dexamethasone, dexamethasone sodium phosphate] | no indication of a large burst | linear | linear | weak relationship | No significant difference | – | – |
| Oc1ccc(C=Cc2cc(O)cc(O)c2)cc1 [Resveratrol] | no indication of a large burst | linear | – | – | – | several weeks | nearly one month |
